Results on 6 compounds are retold here after US11225505B2, “Antimicrobial polymyxin derivative compounds” (MONASH UNIVERSITY, priority 2015, dated 2022).

Converted amounts (≈) assume the structure as drawn. Where a SMILES comes first, the peptide text is derived from it. Bridges are numbered along the chain shown (N, C = ends). [ ]: non-standard residue; d: D form. The star is where a group is joined. X14 = O=C(c1ccc(C(F)(F)F)cn1)*; X51 = O=C(c1cc(Cl)nc(Cl)c1)*; X52 = O=C(c1nc2ccccc2s1)*; X48 = O=C(c1ccc(Cl)nc1)*; Dab = NCC[C@H](N)C(=O)O; Abu = CC[C@H](N)C(=O)O; Dap = NC[C@H](N)C(=O)O Some results are limits rather than exact numbers.

The test system of series [1] is mouse kidney. Briefly: Nephrotoxicity in a mouse model (kidney histology). Particulars: for Max Overall Kidney Histological Score / Max Kidney Histological Score: mice (n=3), subcutaneous 12 mg/kg free base every 2 h, 6 doses in one day; for Max Overall Kidney Histological Score: kidney ~20 h after last dose; for Max Kidney Histological Score: semiquantitative score 0 to +5. In kind it is in vivo. On the procedure: Polymyxin B sulphate and colistin sulphate were supplied by Betapharma (Shanghai Co., Ltd, China). Stock solutions of compounds in saline (5 mg base/mL) were stored at 4° C. before use. Mice (n=3) were subcutaneously administered with the compound at 12 mg/kg of the free base form every 2 h, 6 doses in one day. At approximately 20 h after the last dose, mice were euthanised by inhalation of an overdose of isoflurane. Immediately after blood sampling, the right kidney from each mouse was collected immediately and placed in 10% formalin in 5 mL plastic tubes and the left kidney placed in a pre-weighed 14 mL plastic tubes, weighed again and stored at −20° C. pending homogenization and analysis of polymyxin B and colistin. The frozen kidney samples were thawed, homogenized in 2 mL of Milli-Q water and stored in a −20° C. freezer. The formalin-fixed kidneys were then sent to the Australian Phenomics Network-Histopathology and Organ Pathology (The University of Melbourne, Parkville, Australia) for histological examination. Samples were examined by a pathologist who was blind to the treatment groups.
Lesions were rated as follows: mild acute tubular damage with tubular dilation, prominent nuclei and a few pale tubular casts (Grade 1); severe acute tubular damage with necrosis of tubular epithelial cells and numerous tubular casts (Grade 2); acute cortical necrosis/infarction of tubules and glomeruli with or without papillary necrosis (Grade 3). The grades were given the following scores: grade 1=1, grade 2=4, and grade 3=10. The percentage of area of the kidney slice showing histological damage was scored as follows: <1%=0, 1 to <5%=1, 5 to <10%=2, 10 to <20%=3, 20 to <30%=4, 30 to <40%=5, and >40%=6. The overall kidney histological score was calculated as the product of the percentage score and grade score. These scores were then expressed as a semiquantitative score (Kidney Histological Score) on a scale of 0 to +5 for renal histological changes. These scores were assigned as follows: SQS 0=no significant change (overall score, <1); SQS +1=mild damage (overall score, 1 to <15); SQS +2=mild to moderate damage (overall score, 15 to <30); SQS +3=moderate damage (overall score, 30 to <45); SQS +4=moderate to severe damage (overall score, 45 to <60); and SQS +5=severe damage (overall score, ≥60) (Yousef, J., et al., (2011) Antimicrob. Agents and Chemother. 55 (9), 4044-4049).
Any compound with a kidney histological score of ≤+1.0 is considered to have a low nephrotoxicity in this model.

The test system of series [2] is Klebsiella pneumoniae FADDI-KP032. In kind it is cell-based. Particulars: K. pneumoniae FADDI-KP032; CAMHB broth microdilution. The method, boiled down: (§1)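 In cation-adjusted Mueller-Hinton broth, each lipopeptide (TFA salt) was titrated against the bacteria by microdilution and the minimum inhibitory concentration recorded per CLSI M100-S24; polymyxin B sulphate ran in parallel.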

The subject of series [3] is Enterobacter cloacae FADDI-EC003. Type of series: cell-based. Particulars: E. cloacae FADDI-EC003; CAMHB broth microdilution. The method, boiled down: as §1
(In broth dilution the organism is exposed to a series of concentrations in liquid medium.)

Series [4] has as its system Pseudomonas aeruginosa FADDI-PA022. In kind it is cell-based. Particulars: P. aeruginosa FADDI-PA022; CAMHB broth microdilution. The method, boiled down: as §1
Series [5] deals with Pseudomonas aeruginosa FADDI-PA01. In kind it is cell-based. Particulars: P. aeruginosa FADDI-PA01; CAMHB broth microdilution. The essentials: as §1
Series [6] concerns Klebsiella pneumoniae Kp BM1. Type of series: cell-based. Particulars: K. pneumoniae Kp BM1; CAMHB broth microdilution. The method, boiled down: (§2)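 Lipopeptides (TFA salts) tested against Gram-negative strains by CLSI broth microdilution using cation-adjusted Mueller-Hinton broth; MIC recorded, polymyxin B sulphate as control.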
Series [7] deals with Enterobacter cloacae FADDI-EC006. In kind it is cell-based. The conditions noted are these: E. cloacae FADDI-EC006; CAMHB broth microdilution. The method, boiled down:
as §1

Series [8] has as its system Enterobacter cloacae FADDI-EC001. Type of series: cell-based. The conditions noted are these: E. cloacae FADDI-EC001; CAMHB broth microdilution. The essentials:
as §2

The subject of series [9] is Pseudomonas aeruginosa ATCC 27853. Type of series: cell-based. Particulars: P. aeruginosa ATCC 27853; CAMHB broth microdilution. The essentials:
as §1

Series [10] deals with Acinetobacter baumannii FADDI-AB034. In kind it is cell-based. Particulars: A. baumannii FADDI-AB034; CAMHB broth microdilution. The essentials:
as §1

Series [11] relates to Acinetobacter baumannii ATCC 17978. In kind it is cell-based. Particulars: A. baumannii ATCC 17978; CAMHB broth microdilution. The method, boiled down:
as §1

Series [12] relates to Klebsiella pneumoniae FADDI-KP022. In kind it is cell-based. The conditions noted are these: K. pneumoniae FADDI-KP022; CAMHB broth microdilution. The essentials:
as §1

Series [13] has as its system Pseudomonas aeruginosa FADDI-PA038. In kind it is cell-based. The conditions noted are these: P. aeruginosa FADDI-PA038; CAMHB broth microdilution. The essentials:
as §1

Series [14] deals with Acinetobacter baumannii FADDI-AB030. In words: microbe, parasite or virus in culture. Type of series: cell-based. The method, boiled down:
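Lipopeptide TFA salts tested against the multidrug-resistant clinical isolate by CLSI (M100-S24) broth microdilution in cation-adjusted Mueller-Hinton broth, with polymyxin B sulphate as control; MIC read.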

Setting [15] is: A. baumannii FADDI-AB030, CAMHB broth microdilution.

Consider `CC[C@@H]1NC(=O)[C@@H](CC(C)C)NC(=O)[C@H](CCN)NC(=O)[C@@H](NC(=O)[C@H](CN)NC(=O)[C@@H](NC(=O)[C@H](CCN)NC(=O)c2ccc(Cl)nc2)[C@@H](C)O)CCNC(=O)[C@H]([C@@H](C)O)NC(=O)[C@H](CCN)NC(=O)[C@H](CCN)NC1=O` [Compound 4] (X48-[Dab]T[Dap][Dab][Dab][dL][Abu][Dab][Dab]T; lactam 4-C), for which the “Max Overall Kidney Histological Score” value in series [1] came to 0.0. Moreover, in series [1], the “Max Kidney Histological Score” value is 0 (SQS 0=no significant change (overall score, <1)). In addition, the Minimum inhibitory concentration in [2] stood at 1 µg/mL (≈ 0.888 µM); in series [3], 0.5 µg/mL (≈ 0.444 µM); in series [4], 1 µg/mL (≈ 0.888 µM); in series [5], 0.5 µg/mL (≈ 0.444 µM); in series [6] it was 2 µg/mL (≈ 1.78 µM); in series [7], 4 µg/mL (≈ 3.55 µM). Moreover, the Minimum inhibitory concentration in series [8] was found to be 2 µg/mL (≈ 1.78 µM); in series [9], 0.5 µg/mL (≈ 0.444 µM); in [10] it was 1 µg/mL (≈ 0.888 µM); in [11], 1 µg/mL (≈ 0.888 µM); in series [12], 0.5 µg/mL (≈ 0.444 µM); in series [13] it was 1 µg/mL (≈ 0.888 µM). This compound also yielded a Minimum inhibitory concentration in series [14] (setting [15]) of 2 µg/mL (≈ 1.78 µM).

For the compound `CC[C@@H]1NC(=O)[C@@H](CC(C)C)NC(=O)[C@H](CCN)NC(=O)[C@@H](NC(=O)[C@H](CN)NC(=O)[C@@H](NC(=O)[C@H](CCN)NC(=O)c2cc(Cl)nc(Cl)c2)[C@@H](C)O)CCNC(=O)[C@H]([C@@H](C)O)NC(=O)[C@H](CCN)NC(=O)[C@H](CCN)NC1=O` [Compound 19] (X51-[Dab]T[Dap][Dab][Dab][dL][Abu][Dab][Dab]T; lactam 4-C), in series [1], the “Max Overall Kidney Histological Score” value turned out to be 0.0 and the “Max Kidney Histological Score” value was 0 (SQS 0=no significant change (overall score, <1)).

Consider `CC[C@@H]1NC(=O)[C@@H](CC(C)C)NC(=O)[C@H](CCN)NC(=O)[C@@H](NC(=O)[C@H](CN)NC(=O)[C@@H](NC(=O)[C@H](CCN)NC(=O)c2ccc(C(F)(F)F)cn2)[C@@H](C)O)CCNC(=O)[C@H]([C@@H](C)O)NC(=O)[C@H](CCN)NC(=O)[C@H](CCN)NC1=O` [Compound 38] (X14-[Dab]T[Dap][Dab][Dab][dL][Abu][Dab][Dab]T; lactam 4-C), for which, in [1], the “Max Overall Kidney Histological Score” value was found to be 0.0. In [1], the “Max Kidney Histological Score” value is given as 0 (SQS 0=no significant change (overall score, <1)). Moreover, the Minimum inhibitory concentration is less than 0.125 µg/mL in series [2]; 0.25 µg/mL (≈ 0.215 µM) in [3]; 0.25 µg/mL (≈ 0.215 µM) in [4]; 0.25 µg/mL (≈ 0.215 µM) in series [5]; less than 0.125 µg/mL in [6]; 0.25 µg/mL (≈ 0.215 µM) in [7]. In addition, the Minimum inhibitory concentration in series [8] is less than 0.125 µg/mL; in series [9], 0.25 µg/mL (≈ 0.215 µM); in [10] it was 0.25 µg/mL (≈ 0.215 µM); in series [11], 1 µg/mL (≈ 0.862 µM); in series [12] it was 0.25 µg/mL (≈ 0.215 µM); in series [13], 1 µg/mL (≈ 0.862 µM). In series [14] (setting [15]), this compound came in with a Minimum inhibitory concentration of 1 µg/mL (≈ 0.862 µM).

For the compound `CC[C@@H]1NC(=O)[C@@H](CC(C)C)NC(=O)[C@H](CCN)NC(=O)[C@@H](NC(=O)[C@H](CN)NC(=O)[C@@H](NC(=O)[C@H](CCN)NC(=O)c2nc3ccccc3s2)[C@@H](C)O)CCNC(=O)[C@H]([C@@H](C)O)NC(=O)[C@H](CCN)NC(=O)[C@H](CCN)NC1=O` [Compound 70] (X52-[Dab]T[Dap][Dab][Dab][dL][Abu][Dab][Dab]T; lactam 4-C), in [1], the “Max Overall Kidney Histological Score” value is given as 0.0. The “Max Kidney Histological Score” value in series [1] is recorded as 0 (SQS 0=no significant change (overall score, <1)). Besides, the Minimum inhibitory concentration in series [2] was less than 0.125 µg/mL; in series [3] it was 0.25 µg/mL (≈ 0.218 µM); in series [4], 0.5 µg/mL (≈ 0.435 µM); in [5], 0.25 µg/mL (≈ 0.218 µM); in [6] it was less than 0.125 µg/mL; in series [7], 0.25 µg/mL (≈ 0.218 µM). In addition, the Minimum inhibitory concentration in series [8] is 0.25 µg/mL (≈ 0.218 µM); in series [9], 0.5 µg/mL (≈ 0.435 µM); in series [10] it was 1 µg/mL (≈ 0.871 µM); in [11] it was 0.5 µg/mL (≈ 0.435 µM); in [12], less than 0.125 µg/mL; in series [13], 1 µg/mL (≈ 0.871 µM). Besides, in series [14] (setting [15]), the Minimum inhibitory concentration is 0.5 µg/mL (≈ 0.435 µM).

Take Colistin [reference compound]: the “nephrotoxicity in the mouse model (in words)” value in series [1] (12 mg/kg every 2 h, 6 doses, subcutaneous) is recorded as “severe nephrotoxicity”. The “Max Overall Kidney Histological Score” value in series [1] came to 60.0. For the same compound, in series [1], the “Max Kidney Histological Score” value is listed as “+5 (SQS +5=severe damage (overall score, ≥60))”. The Minimum inhibitory concentration in series [2] is 1 µg/mL; in series [3], less than 0.125 µg/mL; in series [4], 1 µg/mL; in [5], 0.5 µg/mL; in series [6], less than 0.125 µg/mL; in [7], less than 0.125 µg/mL. The Minimum inhibitory concentration in [8] stood at 0.25 µg/mL; in series [9] it was 1 µg/mL; in series [10], 0.5 µg/mL; in series [11] it was 0.5 µg/mL; in series [12], 1 µg/mL; in series [13], 1 µg/mL. This compound also came in with a Minimum inhibitory concentration in series [14] (setting [15]) of 0.25 µg/mL.

Regarding Polymyxin B [reference compound], the Minimum inhibitory concentration was less than 0.125 µg/mL in [2]; 0.5 µg/mL in series [3]; 1 µg/mL in series [4]; 0.5 µg/mL in series [5]; 0.5 µg/mL in series [6]; 0.5 µg/mL in series [7]. In addition, the Minimum inhibitory concentration in series [8] is 0.25 µg/mL; in series [9], 1 µg/mL; in [10], 0.5 µg/mL; in [11] it was 1 µg/mL; in series [12], less than 0.125 µg/mL; in series [13], 1 µg/mL. Moreover, the Minimum inhibitory concentration in series [14] (setting [15]) was found to be 0.25 µg/mL; in [14] (clinically used antibiotics, clinical isolate A. baumannii FADDI-AB030), 0.25 µg/mL.
